# Experimental data reported in patent EP0829478A2, “N-Benzylimidazolium and N-benzyltriazolium derivatives, their preparation and their use as antifungal and antimycotic agents” (F. HOFFMANN-LA ROCHE AG, priority 1996, dated 1998).
# Where a name gives a salt, the structure may show the parent alone. Read-outs that look alike come from different tables or passages of the source.
# Columns and labels:
# [1] = Water solubility (Table 1); format: physicochemical
# [2] = Conversion of the azolium compounds to ketoconazole / itraconazole on incubation in human plasma; format: in vitro ADME; conditions: 10µg/ml, 37°C; for metabolised at 5 min / remaining at 5 min: incubation time 5 min
# Description: The compounds of formula I were incubated with human plasma at a concentration of 10µg/ml at 37°C for up to 120 min.
# [3] = test system: Candida albicans; experiment: Systemic candidiasis model in rats, ED50; format: in vivo; conditions: 336 h
# From the text: (§1) Male Fisher rats, strain F344/DuCrj, were employed for experimental infection models such as systemic candidiasis, systemic aspergillosis and pulmonary aspergillosis model. Immunocompetent 4 weeks old rats were used for systemic candidiasis or systemic aspergillosis which occurred her infection with Candida albicans conidia of 5x10^6/rat or with Aspergillus fumigatus conidia of 6x10^5/rat via tail vein. Otherwise for pulmonary aspergillosis model, rats had been immunosuppressed with cortisone acetate treatments prior to infection with 2x10^5/rat intratrachially. Treatments were given twice on the first day and once daily on following 4 days both for systemic and pulmonary aspergillosis (Ib.i.+4q.d.), for systemic candidiasis rats were treated at 0, 4, 24, and 48 h after infection (Ib.i.d.+2q.d.).
# [4] = test system: Aspergillus fumigatus; experiment: Systemic aspergillosis model in rats, ED50; format: in vivo; conditions: 336 h
# From the text: as §1
# [5] = test system: Aspergillus fumigatus; experiment: Pulmonary aspergillosis model in immunosuppressed rats, ED50; format: in vivo; conditions: 336 h
# From the text: as §1
# [6] = solvent a = distilled water, read-out: solubility
# [7] = ketoconazole formed, read-out: Observed (%) KCZ
# [8] = remaining parent compound, read-out: Observed (%) Comp. I
# [9] = mcilvaine buffer, pH 8.02, aqueous buffer
# [10] = iv, read-out: Effective dose 50% (ED50) Systemic candidiasis i.v., male Fisher rats F344/DuCrj, immunocompetent, i.v., treated at 0, 4, 24 and 48 h after infection, determined on day 14 after infection
# [11] = po, read-out: Effective dose 50% (ED50) Systemic candidiasis p.o., male Fisher rats F344/DuCrj, immunocompetent, p.o., treated at 0, 4, 24 and 48 h after infection, determined on day 14 after infection
# [12] = iv, read-out: Effective dose 50% (ED50) Systemic aspergillosis i.v., male Fisher rats F344/DuCrj, immunocompetent, i.v., twice on first day, once daily on following 4 days, determined on day 14 after infection
# [13] = po, read-out: Effective dose 50% (ED50) Systemic aspergillosis p.o., male Fisher rats F344/DuCrj, immunocompetent, p.o., twice on first day, once daily on following 4 days, determined on day 14 after infection
# [14] = iv, read-out: Effective dose 50% (ED50) Pulmonay aspergillosis i.v., male Fisher rats F344/DuCrj immunosuppressed with cortisone acetate, i.v., twice on first day, once daily on following 4 days, determined on day 14 after infection
# [15] = po, read-out: Effective dose 50% (ED50) Pulmonay aspergillosis p.o., male Fisher rats F344/DuCrj immunosuppressed with cortisone acetate, p.o., twice on first day, once daily on following 4 days, determined on day 14 after infection
structure (smiles),measurement,setting,value
"CC(=O)Oc1c(C)cc(C[n+]2ccn(CC(OCc3ccc(Cl)cc3Cl)c3ccc(Cl)cc3Cl)c2)cc1C (racemic) [Example 7, dl-1-(4-Acetoxy-3,5-dimethyl-benzyl)-3-[2-(2,4-dichloro-benzyloxy)-2-(2,4-dichloro-phenyl)-ethyl]-3H-imidazol-1-ium bromide]",solubility,[1]; [6],> 1000 µg/mL
"CCCCCC(=O)Oc1c(C)cc(C[n+]2cnn(CC3(c4ccc(Cl)cc4Cl)OCC(COc4ccc(N5CCN(c6ccc(-n7cnn(C(C)CC)c7=O)cc6)CC5)cc4)O3)c2)cc1C (racemic) [Example 13, dl-1-[4-(4-{4-[4-(1-sec-butyl-5-oxo-1,5-dihydro-[1,2,4]triazol-4-yl)-phenyl]-piperazin-1-yl}-phenoxymethyl)-2-(2,4-dichloro-phenyl)-[1,3]dioxolan-2-ylmethyl]-4-(4-hexanoyloxy-3,5-dimethyl-benzyl)-1H-[1,2,4]triazol-4-ium methanesulfonate]",solubility,"[1]; mcilvaine buffer, pH 8.02, aqueous buffer, solvent b = Mellvaine buffer(pH8.02), read-out: solubility",500 µg/mL
"CC(=O)N1CCN(c2ccc(OC[C@H]3CO[C@](Cn4cc[n+](Cc5cc(C)c(OC(=O)C(C)C)c(C)c5)c4)(c4ccc(Cl)cc4Cl)O3)cc2)CC1.[Br-] (relative stereo) [Example 5, 3-[(2R*,4S*)-4-[4-(4-Acetyl-piperazin-1-yl)-phenoxymethyl]-2-(2,4-dichloro-phenyl)-[1,3]dioxolan-2-ylmethyl]-1-(4-isobutyryloxy-3,5-dimethyl-benzyl)-3H-imidazol-1-ium bromide]",solubility,"[1]; distilled water, water",> 1000 µg/mL
"CC(=O)Oc1ccc(C[n+]2ccn(C[C@]3(c4ccc(Cl)cc4Cl)OC[C@H](COc4ccc(N5CCN(C(C)=O)CC5)cc4)O3)c2)cc1 (relative stereo) [Example 9, 1-(4-Acetoxybenzyl)-3-[(2R*,4S*)-4-[4-(4-acetylpiperazin-1-yl)phenoxymethyl]-2-(2,4-dichlorophenyl)-[1,3]dioxolan-2-ylmethyl]-3H-imidazol-1-ium bromide]",metabolised at 5 min,[2]; [7],89%
same,remaining at 5 min,[2]; [8],< 5%
"CC(=O)Oc1ccc(C[n+]2ccn(C[C@]3(c4ccc(Cl)cc4Cl)OC[C@H](COc4ccc(N5CCN(C(C)=O)CC5)cc4)O3)c2)cc1C (relative stereo) [Example 11, 1-(4-Acetoxy-3-methyl-benzyl)-3-[(2R*,4S*)-4-[4-(4-acetyl-piperazin-1-yl)-phenoxymethyl]-2-(2,4-dichloro-phenyl)-[1,3]dioxolan-2-ylmethyl]-3H-imidazol-1-ium bromide]",metabolised at 5 min,[2]; [7],100%
same,remaining at 5 min,[2]; [8],< 5%
CCC(C)n1ncn(-c2ccc(N3CCN(c4ccc(OCC5COC(Cn6c[n+](Cc7cc(C)c(OC(C)=O)c(C)c7)cn6)(c6ccc(Cl)cc6Cl)O5)cc4)CC3)cc2)c1=O (centres unmarked) [Example 1],metabolised at 1 h,"[2]; itraconazole formed, incubation time 60 min, read-out: Observed (%) ICZ",28%
same,remaining at 1 h,"[2]; remaining parent compound, incubation time 60 min, read-out: Observed (%) Comp. I",47%
"CCC(C)n1ncn(-c2ccc(N3CCN(c4ccc(OCC5COC(Cn6c[n+](Cc7cc(C)c(OC(=O)c8cccnc8)c(C)c7)cn6)(c6ccc(Cl)cc6Cl)O5)cc4)CC3)cc2)c1=O.[Br-] (centres unmarked) [Example 2, 4-(4-(Pyridine-3-carbonyloxy)-3,5-dimethylbenzyl)-1-[4-(4-{4-(4-(1-(2-butyl)-5-oxo-1,5-dihydro-[1,2,4]triazol-4-yl)phenyl]piperazin-1-yl}phenoxymethyl)-2-(2,4-dichlorophenyl)-[1,3]dioxolan-2-ylmethyl]-1H-[1,2,4]triazol-4-ium bromide]",solubility,[1]; [9],400 µg/mL
"CCC(C)n1ncn(-c2ccc(N3CCN(c4ccc(OCC5COC(Cn6c[n+](Cc7cc(C)c(OC(=O)c8ccccc8)c(C)c7)cn6)(c6ccc(Cl)cc6Cl)O5)cc4)CC3)cc2)c1=O.[Br-] (centres unmarked) [Example 3, 4-(4-Benzoyloxy-3,5-dimethylbenzyl)-1-[4-(4-{4-[4-(1-(2-butyl)-5-oxo-1,5-dihydro-[1,2,4]triazol-4-yl)phenyl]piperazin-1-yl}phenoxymethyl)-2-(2,4-dichlorophenyl)-[1,3]dioxolan-2-ylmethyl]-1H-[1,2,4]triazol-4-ium bromide]",solubility,[1]; [9],400 µg/mL
"CC(=O)Oc1c(C)cc(C[n+]2ccn(CC3(c4ccc(Cl)cc4Cl)OCC(COc4ccc(N5CCN(C(C)=O)CC5)cc4)O3)c2)cc1C (stereo not drawn) [Example 4, 1-(4-Acetoxy-3,5-dimethyl-benxyl)-3-[(2R*,4S*)-4-[4-(4-acetyl-piperazin-1-yl)-phenoxymethyl]-2-(2,4-dichloro-phenyl)-[1,3]dioxolan-2-ylmethyl]-3H-imidazol-1-ium bromide]",metabolised at 20 min,"[2]; ketoconazole formed, incubation time 20 min, read-out: Observed (%) KCZ",74%
same,remaining at 20 min,"[2]; remaining parent compound, incubation time 20 min, read-out: Observed (%) Comp. I",19%
"CC(=O)Oc1c(Cl)cc(C[n+]2ccn(CC3(c4ccc(Cl)cc4Cl)OCC(COc4ccc(N5CCN(C(C)=O)CC5)cc4)O3)c2)cc1Cl (stereo not drawn) [Example 6, 1-(4-Acetoxy-3,5-dichloro-benzyl)-3-[(2R*,4S*)-[4-[4-(4-acetyl-piperazin-1-yl)-phenoxymethyl]-2-(2,4-dichloro-phenyl)-[1,3]dioxolan-2-ylmethyl]-3H-imidazol-1-ium bromide]",solubility,[1]; [6],6500 µg/mL
"CO[C@H]1[C@@H](Cn2c[n+](Cc3cc(C)c(OC(C)=O)c(C)c3)cn2)[C@H](CCc2ccc(C)cc2)CCC1(C)C.[Br-] [Example 8, 4-(4-acetoxy-3,5-dimethyl-benzyl)-1-[(1R,2S,6R)-2-methoxy-3,3-dimethyl-6-(2-p-tolyl-ethyl)-cyclohexylmethyl]-1H-[1,2,4]triazol-4-ium bromide]",solubility,"[1]; distilled water, water",14000 µg/mL
"CC(=O)N1CCN(c2ccc(OCC3COC(Cn4cc[n+](Cc5ccc(OC(=O)C(C)(C)C)cc5)c4)(c4ccc(Cl)cc4Cl)O3)cc2)CC1 (stereo not drawn) [Example 10, 3-[(2R*,4S*)-4-[4-(4-Acetylpiperazin-1-yl)phenoxymethyl]-2-(2,4-dichlorophenyl)-[1,3]dioxolan-2-ylmethyl]-1-[4-(2,2-dimethylpropionyloxy)benzyl]-3H-imidazol-1-ium bromides]",metabolised at 10 min,"[2]; ketoconazole formed, incubation time 10 min, read-out: Observed (%) KCZ",80%
same,remaining at 10 min,"[2]; remaining parent compound, incubation time 10 min, read-out: Observed (%) Comp. I",< 5%
COc1cc(C[n+]2ccn(CC3(c4ccc(Cl)cc4Cl)OCC(COc4ccc(N5CCN(C(C)=O)CC5)cc4)O3)c2)ccc1OC(C)=O (centres unmarked) [Example 12],solubility,[1]; [6],5000 µg/mL
"Cc1cc(C[n+]2cnn(C[C@](O)(c3ccc(F)cc3F)[C@@H](C)c3nc(-c4ccc(C#N)cc4)cs3)c2)cc(C)c1OC(=O)[C@@H]1CCCN1 [Example 16, 1-[(2R,3R)-3-[4-(4-Cyanophenyl)-thiazol-2-yl]-2-(2,4-difluorophenyl)-2-hydroxybutyl]-4-[(S)-3,5-dimethyl-4-(pyrrolidine-2-carbonyloxy)-benzyl]-1H-[1,2,4]triazol-4-ium bromide trifluoroacetic acid salt]",ED50,[3]; [10],3.5 µmol/kg
same,ED50,[3]; [11],< 2.1 µmol/kg
same,ED50,[4]; [12],> 35 µmol/kg
same,ED50,[4]; [13],> 55 µmol/kg
same,ED50,[5]; [14],17 µmol/kg
same,ED50,[5]; [15],18 µmol/kg
"CNCC(=O)Oc1c(C)cc(C[n+]2cnn(C[C@](O)(c3ccc(F)cc3F)[C@@H](C)c3nc(-c4ccc(C#N)cc4)cs3)c2)cc1C [Example 23, 1-[(2R,3R)-3-[4-(4-Cyanophenyl)thiazol-2-yl]-2-(2,4-difluorophenyl)-2-hydroxybutyl]-4-[3,5-dimethyl-4-[(methylamino)acetoxy]benzyl]-1H-[1,2,4]triazol-4-ium bromide trifluoroacetic acid salt]",ED50,[3]; [10],4.6 µmol/kg
same,ED50,[3]; [11],4.7 µmol/kg
same,ED50,[4]; [12],17 µmol/kg
same,ED50,[4]; [13],19 µmol/kg
same,ED50,[5]; [14],8 µmol/kg
same,ED50,[5]; [15],17 µmol/kg
"OC(Cn1cncn1)(Cn1cncn1)c1ccc(F)cc1F [Fluconazole, reference compound]",ED50,"[3]; po, read-out: Effective dose 50% (ED50) Systemic candidiasis p.o.",> 2.9 µmol/kg
"CCC(C)n1ncn(-c2ccc(N3CCN(c4ccc(OCC5COC(Cn6cncn6)(c6ccc(Cl)cc6Cl)O5)cc4)CC3)cc2)c1=O (centres unmarked) [Itraconazole, reference compound]",ED50,"[4]; po, read-out: Effective dose 50% (ED50) Systemic aspergillosis p.o.",17 µmol/kg
